{"source": "patent US8986696B2", "about": "“Trans-capsular administration of p38 map kinase inhibitors into orthopedic joints” (DePuy Mitek, Inc., priority 2007, dated 2015)", "key": {"[1]": {"system": "rabbit anterior cruciate ligament transection (ACLT) model of osteoarthritis", "assay": "ACLT model, therapeutic dosing regimen (Example IX)", "format": "in vivo", "experimental": "(§1) 130 Female New Zealand white rabbits underwent ACLT on the right knee. Intra-articular injections were administered to the operated knee once per week for five weeks beginning either one or six weeks after the ACLT. All animals were euthanized one week after the administration of the fifth injection. Gross observations were made on the knee joints according to a predetermined grading scale. The stifle joints were removed. Samples were preserved in 10% neutral buffered formalin. The stifle joints were photographed using high-resolution photography.\nThe ACLT was performed according to the ACLT model discussed above. Animals were group housed in pens on the floor and left untreated for six weeks to allow osteoarthritis to develop. Then, once weekly for five weeks, intra-articular injections were administered. One week following the last injection, the animals were sacrificed. The total in-life portion of this regimen was eleven weeks post-ACLT.\n(§2) The study design consisted of an n=10 per group. A total of 160 μl was injected at each administration.\n(§3) At the time of sacrifice the following parameters were evaluated grossly (the scale follows in parenthesis):\n(§4) Each parameter was given a score. The combination of all parameters gave a Total Score (0-52). Additionally, combinations of the three subsets of data yielded scores for All Trochlear Groove Effects (0-10), All Condylar Effects (0-18) and All Tibial Plateau Effects (0-24). Lastly, an All Condylar Effects Score was obtained. The score for All Condylar Effects ranges from 0 to 40. The grades that compose this parameter are trochlear groove thickness and erosion, all the grades in All Condylar Effects, and all grades listed under Tibial Plateau. A higher score indicates more damage to the joint. A lower score indicates less damage or more cartilage preservation in the joint. Individual results for each parameter assessed were tabulated."}, "[2]": {"system": "rabbit anterior cruciate ligament transection (ACLT) model of osteoarthritis", "assay": "ACLT model, preventative dosing regimen (Example IX)", "format": "in vivo", "set-up": "key to Trochlear Groove Erosion of Cartilage, mean score / Tibial Plateau # of Osteophytes (Medial), mean score: gross grading scale; higher score = more joint damage; key to All Condylar Effects (0-18), mean: score 0-18; higher = more joint damage", "experimental": "as §1\nThe ACLT was performed according to the ACLT model discussed above. Animals were group housed in pens on the floor and left untreated for one week to allow healing of the surgical site. Then, once weekly for five weeks, intra-articular injections were administered. One week following the last injection, the animals were sacrificed. The total in-life portion of the preventative dosing regimen was […]. Previous studies have confirmed that the six week time-point allows sufficient degeneration changes to occur.\nas §2, §3\nas §4, with “[…] […]” for “Lastly, an All Condylar Effects Score was obtained. The score for All Condylar Effects ranges from 0 to 40.”"}, "[3]": {"format": "physicochemical", "experimental": "JNJ 3026582 (RWJ 67657) was gamma irradiated on dry ice at a dose of 15 kgray. Then the sterile drug was aseptically mixed with ORTHOVISC® in the concentrations of 10 μg/mL and 100 μg/mL. Drug content uniformity was confirmed by reverse phase HPLC. There was approximately 100% drug stability.\nJNJ 17089540 (RWJ 669307) was gamma irradiated on dry ice at a dose of 15 kgray. The sterile drug as aseptically mixed with ORTHOVISC® in the concentrations of 1 ug/uL and 10 ug/uL. Drug content uniformity was confirmed by reverse phase HPLC. There was approximately 100% drug stability.\nSuprofen was gamma irradiated on dry ice at dose of 15 kgray. The sterile drug was aseptically mixed with ORTHOVISC® in the concentration of 1.3 ug/uL. Drug content uniformity at time of preparation and stability of 4 months at 4° C. was confirmed by reverse phase HPLC that there was around 100% drug stability."}, "[4]": {"details": "Therapeutic Dosing Regimen, mean gross score, 0 = Absent, 1 = Present"}, "[5]": {"details": "Therapeutic Dosing Regimen, mean gross score, scale 0-5"}, "[6]": {"details": "Therapeutic Dosing Regimen, mean gross score, scale 0 = 0, 1 = 1, 2 = 2, 3 ≧ 2"}, "[7]": {"details": "Therapeutic Dosing Regimen, mean gross score, scale 0 = no damage to 3 = severe"}}, "note": "Where “and” joins values, the source holds several entries; their conditions need not be identical. Equal values may be shown once.", "data": [{"smiles": "CC(=O)N1CCN(c2c(-c3ccncc3)c(-c3ccc(F)cc3)c(C#N)n2C)CC1", "note": "[JNJ 17089540 (RWJ 669307)]", "values": [{"measurement": "Trochlear Groove Erosion of Cartilage", "setting": "[1]; Therapeutic Dosing Regimen, mean gross score, 0 = 0, 1 < 25%, 2 = 25-50%, 3 > 50%", "result": 1.6}, {"measurement": "Tibial Plateau Presence of Clefts (Lateral)", "setting": "[1]; [4]", "result": 0}, {"measurement": "Tibial Plateau Presence of Clefts (Medial)", "setting": "[1]; [4]", "result": 0}, {"measurement": "Trochlear Groove Thickening", "setting": "[1]; Therapeutic Dosing Regimen, mean gross score, 0 = Normal, 1 = Thickened Areas", "result": 0}, {"measurement": "Femoral Condyle Presence of Clefts", "setting": "[1]; Therapeutic Dosing Regimen, mean gross score, 0 = absent, 1 = unicondylar, 2 = both condyles", "result": 0}, {"measurement": "Femoral Condyle % Surface Area Erosion (Lateral)", "setting": "[1]; [5]", "result": 1.1}, {"measurement": "Femoral Condyle % Surface Area Erosion (Medial)", "setting": "[1]; [5]", "result": 0.4}, {"measurement": "Tibial Plateau % Surface Area Erosion (Lateral)", "setting": "[1]; [5]", "result": 1.4}, {"measurement": "Tibial Plateau % Surface Area Erosion (Medial)", "setting": "[1]; [5]", "result": 0}, {"measurement": "Tibial Plateau # of Osteophytes (Lateral)", "setting": "[1]; [6]", "result": 0.7}, {"measurement": "Tibial Plateau # of Osteophytes (Medial)", "setting": "[1]; [6]", "result": 1.5}, {"measurement": "Trochlear Groove # of Osteophytes", "setting": "[1]; [6]", "result": 3.0}, {"measurement": "Trochlear Groove Osteophyte Size", "setting": "[1]; Therapeutic Dosing Regimen, mean gross score, scale 0 = 0, 1 ≦ 1 mm, 2 = 1-2 mm, 3 > 2 mm", "result": 3.0}, {"measurement": "Femoral Condyle Depth of Erosion (Lateral)", "setting": "[1]; [7]", "result": 1.1}, {"measurement": "Femoral Condyle Depth of Erosion (Medial)", "setting": "[1]; [7]", "result": 0.2}, {"measurement": "Tibial Plateau Depth of Erosion (Lateral)", "setting": "[1]; [7]", "result": 1.2}, {"measurement": "Tibial Plateau Depth of Erosion (Medial)", "setting": "[1]; [7]", "result": 0}, {"measurement": "Combination Scores: All Trochlear Groove Effects", "setting": "[1]; Therapeutic Dosing Regimen, mean, 0-10, 10 = max damage", "result": 7.6}, {"measurement": "Combination Scores: All Condylar Effects", "setting": "[1]; Therapeutic Dosing Regimen, mean, 0-18, 18 = max damage", "result": 2.8}, {"measurement": "Combination Scores: All Tibial Plateau Effects", "setting": "[1]; Therapeutic Dosing Regimen, mean, 0-24, 24 = max damage", "result": 4.8}, {"measurement": "Combination Scores: All Cartilage Effects", "setting": "[1]; Therapeutic Dosing Regimen, mean, 0-40, 40 = max damage", "result": 7.0}, {"measurement": "Combination Scores: Total Score", "setting": "[1]; Therapeutic Dosing Regimen, mean, 0-52, 52 = max damage", "result": 15.2}, {"measurement": "All Cartilage Effects, mean score", "setting": "[1]; therapeutic dosing regimen", "result": "7.0+1.0"}, {"measurement": "all condylar effects, mean score", "setting": "[1]; therapeutic dosing regimen", "result": "2.8 ± 0.6"}, {"measurement": "depth of the erosion on the lateral femoral condyle, mean score", "setting": "[1]; therapeutic dosing regimen", "result": "1.1 ± 0.4"}, {"measurement": "depth of the erosion on the medial femoral condyle, mean score", "setting": "[1]; therapeutic dosing regimen", "result": "0.2 ± 0.1"}, {"measurement": "percent surface area erosion of the lateral femoral condyle, mean score", "setting": "[1]; therapeutic dosing regimen", "result": "1.1 ± 0.4"}, {"measurement": "percent surface area erosion of the medial femoral condyle, mean score", "setting": "[1]; therapeutic dosing regimen", "result": "0.4 ± 0.2"}, {"measurement": "total score, mean", "setting": "[1]; therapeutic dosing regimen", "result": "15.2 ± 1.2"}, {"measurement": "All Cartilage Effects (0-40), mean", "setting": "[2]", "result": "5.8+2.0 and 5.8"}, {"measurement": "All Condylar Effects (0-18), mean", "setting": "[2]", "result": "2.7 ± 1.3 and 2.7"}, {"measurement": "All Tibial Plateau Effects (0-24), mean", "setting": "[2]", "result": 4.1}, {"measurement": "All Trochlear Groove Effects (0-10), mean", "setting": "[2]", "result": 6.2}, {"measurement": "Femoral Condyle % Surface Area Erosion (Lateral), mean score", "setting": "[2]", "result": 1.2}, {"measurement": "Femoral Condyle % Surface Area Erosion (Medial), mean score", "setting": "[2]", "result": "0.3+0.3 and 0.3"}, {"measurement": "Femoral Condyle Depth of Erosion (Lateral), mean score", "setting": "[2]", "result": "0.2+0.2 and 0.2"}, {"measurement": "Femoral Condyle Depth of Erosion (Medial), mean score", "setting": "[2]", "result": "0.2+0.2 and 0.2"}, {"measurement": "Femoral Condyle Presence of Clefts, mean score", "setting": "[2]", "result": 0}, {"measurement": "Tibial Plateau # of Osteophytes (Lateral), mean score", "setting": "[2]", "result": 0.4}, {"measurement": "Tibial Plateau # of Osteophytes (Medial), mean score", "setting": "[2]", "result": 1.4}, {"measurement": "Tibial Plateau % Surface Area Erosion (Lateral), mean score", "setting": "[2]", "result": 1.3}, {"measurement": "Tibial Plateau % Surface Area Erosion (Medial), mean score", "setting": "[2]", "result": 0}, {"measurement": "Tibial Plateau Depth of Erosion (Lateral), mean score", "setting": "[2]", "result": 0.8}, {"measurement": "Tibial Plateau Depth of Erosion (Medial), mean score", "setting": "[2]", "result": 0}, {"measurement": "Tibial Plateau Presence of Clefts (Lateral), mean score", "setting": "[2]", "result": 0}, {"measurement": "Tibial Plateau Presence of Clefts (Medial), mean score", "setting": "[2]", "result": 0}, {"measurement": "Total Score (0-52), mean", "setting": "[2]", "result": "12.9 ± 2.3 and 12.9"}, {"measurement": "Trochlear Groove # of Osteophytes, mean score", "setting": "[2]", "result": 2.6}, {"measurement": "Trochlear Groove Erosion of Cartilage, mean score", "setting": "[2]", "result": 1.0}, {"measurement": "Trochlear Groove Osteophyte Size, mean score", "setting": "[2]", "result": 2.7}, {"measurement": "Trochlear Groove Thickening, mean score", "setting": "[2]", "result": 0}, {"measurement": "drug stability", "setting": "[3]", "result": "approximately 100%"}]}]}
